Reference: US4051244A, “2,4-Diamino 5-bromo 6-chloro pyrimidines, process for their preparation and use as pharmaceuticals” (Mar-Pha Societe d'Etudes et d'Exploitation de Marques, priority 1975, dated 1977)

How the values were obtained:
[1] = LD 50 in the mouse, intravenous (cumulative method of Reed and Muench); details: in vivo
Procedure: (§1) The toxicities of the products according to the invention have been determined on the mouse CD 1 (Charles River) by intravenous and oral methods. The lethal doses 50% (LD 50) are calculated by the cumulative method of Reed J. J. and Muench, H. (Am. J. Hyg. 27, 493, 1938).

[2] = LD 50 in the mouse, oral (cumulative method of Reed and Muench); details: in vivo
Procedure: as §1

[3] = test system: ulcer induced by reserpine; experiment: Protection against the ulcer induced by reserpine in a rat, acute oral; assay type: in vivo, rat CD (Charles River); details: for antiulcer properties (in words): p.o., reserpine and constraint ulcer; for ED50: po, read-out: DA 50, dose protecting 50% of the animals against the ulcer induced by reserpine in a rat
Description: (§2) The anti-ulcer properties of the products according to the invention are shown in the rat CD (Charles River) by acute oral administration using two techniques.
The first technique studies the activity of the product in connection with the experimental ulcer induced by […] according to Brodie, D. A. (Gastroenterology, 43, 675, 1962). The result is expressed by a DA 50 which represents the dose in mg/kg capable of protecting 50% of the animals against the least trace of ulceration of the mucous gastric system.

constraint ulcer = experiment: Protection against constraint ulcer, acute oral; assay type: in vivo, rat CD (Charles River); details: p.o., rat, 24 hours constraint, read-out: DE 50, dose decreasing by 50% the ulcerating effect (constraint ulcer)
Description: as §2
The second studies the activity of the product in connection with the constraint ulcer according to Rossi, G., Bonfils, S., Leifooche, G. and Lambling A. (C.R. Soc. Biol. 150, 2124, 1956). The result is expressed by a DE 50 which represents the dose of the substance in mg/kg capable of decreasing by 50% the ulcerating effect caused by the 24 hours constraint.

[4] = test system: isolated duodenum, spasms induced by acetylcholine; experiment: Spasms of the isolated duodenum of a rat induced by acetylcholine (neurotropic); details: for spasmolytic effects, both musculotropic and neurotropic (in words): acetylcholine and barium chloride
Description: (§3) The anti-spasmodic properties of the compounds according to the invention are shown by use of the technique of Magnus, R. (Ges. Physiol. 102, 123, 1904) in connection with the spasms of the isolated duodenum of a rat caused by either acetylcholine to research an effect of neurotropic type or by barium chloride to research an effect of musculotropic type.
(§4) The results, shown hereunder, are expressed by a CE 50 which represents the concentration of product in mg/1 capable of decreasing by 50% the amplitude of spasms thus induced.

[5] = test system: isolated duodenum, spasms induced by barium chloride; experiment: Spasms of the isolated duodenum of a rat induced by barium chloride (musculotropic)
Description: as §3, §4

[6] = test system: vomitings induced by apomorphine; experiment: Anti-emetic test: vomitings induced by apomorphine in the dog, oral; assay type: in vivo; details: mongrel dog; for ED50: Canis lupus familiaris, read-out: DE 50, dose diminishing by 50% the number of vomitings induced by apomorphine
Description: The anti-emetic properties of the compounds according to the invention are shown by oral way in the mongrel dog in tests in which vomitings are induced by apomorphine according to Chen, G. and Ensor, C. (J. Pharmacol exp. Ther. 98, 24, 1950).
The results are expressed by a DE 50 which represents the dose of product capable of diminishing by 50% the number of vomitings induced by the agent.

[7] = test system: isolated uterus, spasms induced by serotonine; experiment: Spasms of isolated uterus of rat induced by serotonine; set-up: species or system rat CD (Charles River); details: for CE 50, spasms of isolated uterus of rat induced by serotonine: in vitro
Description: (§5) The anti-serotonine properties of the compounds according to the invention are shown in vitro and in vivo.
In vitro, the action of the products on the spasms induced by the serotonine in the isolated uterus of a rat (rat CD Charles River) is shown, according to the technique of Fanchamps, A., Doepfner, W., Weidman, H. and Cerletti, (A. Schw. Med. Worsch. 90, 1040, 1960). The results, shown in the table hereunder, are expressed by a CE 50 which represents the concentration in mg/1 of the product capable of decreasing by 50% the amplitude of spasms induced by the serotonine.

[8] = test system: bronchospasms induced by serotonine; experiment: Bronchospasms using serotonine in guinea pigs, intravenous; assay type: in vivo, Albinos Hartley guinea-pigs; details: Cavia porcellus, i.v., anesthesized guinea-pigs, read-out: DE 50, dose reducing by 50% the amplitude of bronchospasms using serotonine in guinea pigs
Description: as §5
In vivo, the products are applied by intra-venous way to anesthesized Albinos Hartley guinea-pigs. A method originated from Konzett, H. and Rossler, R. is employed (Naunyn. Schmiedeberg's Arch. exp. Path. Pharmakol, 195, 71, 1940). The results, shown in the table hereunder, are expressed by a DE 50 which represents the dose capable of reducing by 50% the amplitude of bronchospasms induced by the administration of serotonine.

[9] = test system: cerebral phosphodiesterases; experiment: Inhibition of the phosphodiesterases of the brain; assay type: biochemical, rat CD (Charles River)
Description: The phosphodiesterasic activity is shown by the method of Kukovetz E. R. and Poech, G. (Arch. Pharmakol. 1970, 267, 189) by utilizing the supernatant part obtained after centrifugation at 10,000 G of the brain of male rats CD (Charles River).
The inhibiting action of the compounds according to the invention on the cerebral phosphodiesterases has been tested and expressed by an inhibiting concentration 50% (CI 50) in micromoles.

Structure (SMILES) | LD50 [1] | LD50 [2] | antiulcer properties (in words) [3] | ED50 [3] | ED50 (constraint ulcer) | CE 50, concentration decreasing by 50% the amplitude of spasms induced by acetyl-choline [4] | spasmolytic effects, both musculotropic and neurotropic (in words) [4] | CE 50, concentration decreasing by 50% the amplitude of spasms induced by barium chloride [5] | ED50 [6] | anti-emetic activity (in words) ([6]; apomorphine) | anti-serotonine activity (in words) ([7]; in vitro (rat uterus) and in vivo (guinea pig)) | CE 50, spasms of isolated uterus of rat induced by serotonine [7] | ED50 [8] | inhibiting action on the cerebral phosphodiesterases (in words) ([9]; rat brain supernatant) | IC50 ([9]; supernatant of brain of male rats, 10,000 G, read-out: CI 50, inhibiting concentration 50% on the cerebral phosphodiesterases)
CC(C)Nc1nc(Cl)c(Br)c(N2CCN(C)CC2)n1 [Example 3] | 86 mg/kg | 200 mg/kg | outstanding antiulcer properties | 20 mg/kg | 12 mg/kg | 1.8 mg/L | very interesting | 0.6 mg/L | 1.4 mg/kg | very important anti-emetic activity | very high anti-serotonine activity | 0.004 mg/L | 0.85 mg/kg |  | 
Cc1ccc(N(C)c2nc(Cl)c(Br)c(N3CCN(C)CC3)n2)cc1 [Example 7] | 83 mg/kg | > 900 mg/kg |  | > 100 mg/kg |  | 1.4 mg/L | very interesting | 0.6 mg/L |  |  |  | 0.05 mg/L |  |  | 
CN1CCN(c2nc(N)nc(Cl)c2Br)CC1 [Example 6] | 48 mg/kg | 600 mg/kg |  | > 100 mg/kg |  | 4 mg/L | very interesting | 0.2 mg/L |  |  |  | 0.05 mg/L |  |  | 
CC(C)Nc1nc(N2CCN(C)CC2)nc(Cl)c1Br [Example 2, 2-(N-methylpiperazinyl) 4,isopropylamino 5-bromo 6-chloro pyrimidine] | 83 mg/kg | 675 mg/kg | outstanding antiulcer properties | 100 mg/kg |  | 5.5 mg/L |  | 3 mg/L | > 5 mg/kg |  |  | 0.07 mg/L | 0.45 mg/kg | interesting inhibiting action | 40 µM
CCCCCCCNc1nc(Cl)c(Br)c(N2CCN(C)CC2)n1 [Example 4] |  | > 900 mg/kg |  | > 100 mg/kg |  | 1.4 mg/L | very interesting | 1.3 mg/L |  |  |  | 0.35 mg/L |  |  | 
CNc1nc(Cl)c(Br)c(N2CCN(C)CC2)n1 [Example 1, 2-methylamino-4-(N-methylpiperazinyl) 5-bromo 6-chloro pyrimidine] | 55 mg/kg | 100 mg/kg |  |  |  |  |  |  | 1 mg/kg |  |  |  | 0.08 mg/kg |  | 
Cc1ccc(N(C)c2nc(Cl)c(Br)c(NCCN(C(C)C)C(C)C)n2)cc1 [Example 9] |  | 675 mg/kg |  | 300 mg/kg |  |  |  |  |  |  |  | 0.33 mg/L |  |  | 
